For the experiment, the system named is colitis (colon growth caused by inflammation). The experiment is described as follows: DNBS-induced colitis in rats (animal model for inflammatory bowel disease). It is filed as in vivo, male Spregue-Dawley rats. The note with it: oral once a day for 7 days, rat. Here is the method:
In one experiment, male Spregue-Dawley rats (150-180 gram; Charles River Lab, Boston, Mass.) were kept in filter-topped cages with free access to food and water, and housed in a positive pressure room with controlled temperature and photoperiod during studies. As an animal model for inflammatory bowel disease (e.g., Crohn's disease), colitis (colon growth caused by inflammation) was induced by intracolonic instillation of 25 mg of a hapten reagent, 2,4-dinitrobenzenesulfonic acid (TCI, Japan), in 0.5 ml of 30% vol/vol ethanol. Each rat was first anaesthetized with […]/ethanol was injected into the colon, 8 cm proximal to the anus, with a PE 50 cannula. 2 ml of air was then gently injected through the cannula to ensure that the solution remained in the colon. The rat was then kept in a vertical position for 30 second and returned to its cage. By using the same procedures, rats in the blank-control group received 0.5 ml of 30% ethanol. See Hogaboam, et al., Eur. J. Pharmacol. (1996) 309:261-269. […] Each daily dose contained 3.125 mg to 25 mg of quercetin aglycon for each kilogram of body weight. The weight of each rat was monitored every 24 hours. […] Before removal of each colon, the presence or absence of adhesions between the colon and other organs were recorded upon opening the abdominal cavity. The colon-to-body weight ratio was then calculated for each animal. […]

Take `O=c1c(O)c(-c2ccc(O)c(O)c2)oc2cc(O)cc(O)c12` [quercetin aglycon]: the “inhibition of colon growth (colon-to-body weight ratio)” value is, setting by setting: (3.125 mg/kg quercetin aglycon) “failed to do so”; (25 mg/kg quercetin aglycon) “inhibited colon growth”.
